The text below walks through data of patent US20230406821A1, “STRIGOLACTONE DERIVATIVES” (Plant Response, Inc., priority 2017, published 2023).

SMILES strings stand for the structures.

In the experiment the test system is Zea mays Dekalb Hybrid DKC68-26RIB. Put plainly: Stomatal conductance (LI-6400XT) of sprayed maize plants. The class given is in vivo. Conditions: EC formulation plus 1% Crop Oil Concentrate, foliar spray 2 grams/acre, measured next morning (FIG. 7). The source says: FIG. 7 is a boxplot representing the distribution of stomatal conductance (mmol/m^2/s) measurements taken via LI-6400XT on Zea mays plants treated with EC formulation blank and Crop Oil Concentrate (control; EC) or strigolactone molecule MBS-127, EC formulation blank and Crop Oil Concentrate (MBS-127+EC). […] Letters define significant classes with P<0.05. Points show observations falling outside of the whiskers and have been jittered along the x-axis to avoid overlap.
Water transport is closely intertwined with many vital plant processes, including photosynthesis, translocation, mineral nutrition, growth, and plays a critical role in defining the yield potential of a crop field (Azizian, A., & Sepaskhah, A. R. “Maize response to water, salinity and nitrogen levels: yield-water relation, water-use efficiency and water uptake reduction function,” International Journal of Plant Production (2014) Vol. 8(2), pp. 183-214). The compounds of formulas described herein induce increased leaf conductance in the leaves of intact Z. mays plants (FIG. 7).
In this experiment maize (Zea mays Dekalb Hybrid DKC68-26RIB) plants were grown in a greenhouse in one-gallon pots filled with Sunshine #2 soil-less growing mix. […] Leaves were acclimated within the LI6400XTR sensor head until gas exchange measurements had stabilized for conductance and then the conductance for that leaf determined.

Consider `COC(=O)/C=C/OC1C=C(C)C(=O)O1` (stereo not shown) [MBS-127, 3-(4-Methyl-5-oxo-2,5-dihydro-furan-2-yloxy)-acrylic acid methyl ester], for which the “increase in stomatal conductance compared to the control group” value was found to be 60%.
